Results reported in US20080138288A1, “COMBINATIONS FOR TREATMENT OF NEOVASCULATURE” (Washington University, priority 2006, published 2008).

Test system: aortic vasa vasorum neovasculature
Test: MRI signal enhancement of aortic vasa vasorum neovasculature in cholesterol-fed rabbits (Example 1, FIG. 1)
Type: in vivo
Details: weeks 2 to 8; atorvastatin in high-cholesterol chow, 44 mg/kg feed
Method: Cholesterol-fed rabbits received αvβ3-targeted paramagnetic nanoparticles (NP) with (n=9) or without (n=9) fumagillin (30 μg/kg body weight) at weeks 0 and 4. A portion of the animals (n=4 per group) was treated with atorvastatin included in the high-cholesterol chow (44 mg/kg feed). Assessment of antiangiogenic response was evaluated at weeks 2, 4, 6 and 8 using αvβ3-targeted paramagnetic NP lacking the drug. MRI signal enhancement from the aortic vasa vasorum neovasculature was calculated from transverse black-blood MR images (1.5 T) collected before and 4 hours post NP injection (1 ml/kg body weight). The MRI enhancement observed at each timepoint was normalized with respect to the enhancement measured at week 0.

With `CC(C)c1c(C(=O)Nc2ccccc2)c(-c2ccccc2)c(-c2ccc(F)cc2)n1CC[C@@H](O)C[C@@H](O)CC(=O)O` [atorvastatin] the “MRI enhancement in the thoracic aorta, normalized to week 0, time course” value was “slow decrease in enhancement”.
